# Legend:
# ABUTH [1] = assay: Herbicidal pre-emergence action - Part I; type: in vivo, Abutilon theophrasti; settings: visual grading after ca. 3 weeks vs untreated controls
# Source text: (§1) Seeds of mono- and dicotyledonous weed plants were sown in plastic pots (double sowings with one species of mono- and one species of dicotyledonous weed plants per pot), in sandy loam, and covered with soil. The compounds according to the invention, formulated in the form of wettable powders (WP) or as emulsifiable concentrates (EC), were applied to the surface of the covering soil as aqueous suspension or emulsion, with the addition of 0.5% of an additive, at an application rate of 600 1 of water per hectare (converted). Following treatment, the pots were placed in a greenhouse and kept under optimum growth conditions for the test plants. The visual grading of the damage to the test plants was carried out after ca. 3 weeks in comparison to untreated controls (herbicidaleffectinpercent(%):100%effect=plantshavediedoff,0%effect=ascontrolplants). [formula]
# (§2) Tables A1 to A12, below, show the effects of selected compounds of the general formula (I) according to table 1 on various harmful plants and an application rate corresponding to 1280 g/ha or below obtained by the experimental procedure mentioned above. Table A1: pre-emergence activity at 1280g/ha against ABUTH in %
# ECHCG [2] = assay: Herbicidal pre-emergence action - Part I; type: in vivo, Echinochloa crus-galli; settings: 1280 g/ha, visual grading after ca. 3 weeks vs untreated controls
# Source text: as §1, §2
# MATIN [3] = assay: Herbicidal pre-emergence action - Part I; type: in vivo, Matricaria inodora; settings: visual grading after ca. 3 weeks vs untreated controls
# Source text: as §1, §2
# SETVI = assay: Herbicidal pre-emergence action - Part I; type: in vivo, Setaria viridis; settings: 1280 g/ha, visual grading after ca. 3 weeks vs untreated controls
# Source text: as §1, §2
# STEME [4] = assay: Herbicidal pre-emergence action - Part I; type: in vivo, Stellaria media; settings: visual grading after ca. 3 weeks vs untreated controls
# Source text: as §1, §2
# POAAN [5] = assay: Herbicidal pre-emergence action - Part I; type: in vivo, Poa annua; settings: visual grading after ca. 3 weeks vs untreated controls
# Source text: as §1, §2
# AMARE [6] = assay: Herbicidal pre-emergence action - Part I; type: in vivo, Amaranthus retroflexus; settings: visual grading after ca. 3 weeks vs untreated controls
# Source text: as §1, §2
# KCHSC [7] = assay: Herbicidal pre-emergence action - Part I; type: in vivo, Kochia scoparia; settings: Table A10a, 1280 g/ha, visual grading after ca. 3 weeks vs untreated controls
# Source text: as §1, §2
# DIGSA = assay: Herbicidal pre-emergence action - Part I; type: in vivo, Digitaria sanguinalis; settings: visual grading after ca. 3 weeks vs untreated controls
# Source text: as §1, §2
# ABUTH [8] = assay: Herbicidal post-emergence action - Part I; type: in vivo, Abutilon theophrasti; settings: 320 g/ha, one-leaf stage, rated visually after about 3 weeks vs untreated controls
# Method: (§3) Seeds of mono- and dicotyledonous weed plants were placed in plastic pots in sandy loam soil (doubly sown with in each case one species of mono- or dicotyledonous weed plants per pot), covered with soil and cultivated in a greenhouse under controlled growth conditions. 2 to 3 weeks after sowing, the test plants were treated at the one-leaf stage. The compounds of the invention, formulated in the form of wettable powders (WP) or as emulsion concentrates (EC), were applied onto the green parts of the plants as aqueous suspension or emulsion with addition of 0.5% additive at a water application rate of 600 liters per hectare (converted). After the test plants had been kept in the greenhouse under optimum growth conditions for about 3 weeks, the activity of the preparations was rated visually in comparison to untreated controls. For example, 100% activity = the plants have died, 0% activity = like control plants. Tables B1 to B12, below, show the effects of selected compounds of the general formula (I) according to table 1 on various harmful plants and an application rate corresponding to 1280 g/ha or below obtained by the experimental procedure mentioned above. Table B1a: post-emergence activity at 1280g/ha against ABUTH in %
# ECHCG [9] = assay: Herbicidal post-emergence action - Part I; type: in vivo, Echinochloa crus-galli; settings: one-leaf stage, rated visually after about 3 weeks vs untreated controls
# Method: as §3
# MATIN [10] = assay: Herbicidal post-emergence action - Part I; type: in vivo, Matricaria inodora; settings: one-leaf stage, rated visually after about 3 weeks vs untreated controls
# Method: as §3
# STEME [11] = assay: Herbicidal post-emergence action - Part I; type: in vivo, Stellaria media; settings: one-leaf stage, rated visually after about 3 weeks vs untreated controls
# Method: as §3
# POAAN [12] = assay: Herbicidal post-emergence action - Part I; type: in vivo, Poa annua; settings: one-leaf stage, rated visually after about 3 weeks vs untreated controls
# Method: as §3
# AMARE [13] = assay: Herbicidal post-emergence action - Part I; type: in vivo, Amaranthus retroflexus; settings: one-leaf stage, rated visually after about 3 weeks vs untreated controls
# Method: as §3
# KCHSC [14] = assay: Herbicidal post-emergence action - Part I; type: in vivo, Kochia scoparia; settings: 1280 g/ha, one-leaf stage, rated visually after about 3 weeks vs untreated controls
# Method: as §3
# VERPE [15] = assay: Herbicidal post-emergence action - Part I; type: in vivo, Veronica persica; settings: one-leaf stage, rated visually after about 3 weeks vs untreated controls
# Method: as §3
# ABUTH [16] = assay: Herbicidal post-emergence action - Part II; type: in vivo, Abutilon theophrasti; settings: 20 g/ha; Table E1b
# Source text: (§4) Seeds of mono- and dicotyledonous weed plants and crop plants were sown, in plastic or organic planting pots, in sandy loam, covered with soil and grown in a greenhouse under controlled growth conditions. 2 to 3 weeks after sowing, the test plants were sprayed in the single-leaf stage. The compounds according to the invention, formulated in form of wettable powders (WP) or as emulsifiable concentrates (EC), were sprayed onto the green plant parts as aqueous suspension or emulsion, with the addition of 0.5% of an additive, at an application rate of 600 1 of water/ha (converted). The test plants were placed in the greenhouse for ca. 3 weeks under optimum growth conditions, and then the effect of the preparations was assessed visually in comparison with untreated controls (herbicidal effect in percent (%): 100% effect = plants have died off, 0% effect = as control plants). Tables E1 to E10 below show the effects of selected compounds of the general formula (I) according to table 1 on various harmful plants and an application rate corresponding to 320 g/ha or below obtained by the experimental procedure mentioned above. Table E1a: post-emergence activity at 5g/ha against ABUTH in %
# AMARE [17] = assay: Herbicidal post-emergence action - Part II; type: in vivo, Amaranthus retroflexus
# Source text: as §4
# PHBPU = assay: Herbicidal post-emergence action - Part II; type: in vivo, Pharbitis purpurea
# Source text: as §4
# POLCO = assay: Herbicidal post-emergence action - Part II; type: in vivo, Polygonum convolvulus; settings: 20 g/ha; Table E6
# Source text: as §4
# VERPE [18] = assay: Herbicidal post-emergence action - Part II; type: in vivo, Veronica persica; settings: 20 g/ha; Table E8b
# Source text: as §4
# VIOTR = assay: Herbicidal post-emergence action - Part II; type: in vivo, Viola tricolor
# Source text: as §4
# ZEAMX = assay: Post-emergence effects on crop plants; type: in vivo, Zea mays; settings: crop plant
# Source text: as §4, with “F1” for “E1”, “F5” for “E10”, “crop” for “harmful”, “[…]:” for “E1a:”, “ZEAMX” for “ABUTH”
# TRZAS = assay: Post-emergence effects on crop plants; type: in vivo, Triticum aestivum; settings: crop plant
# Source text: as §4, with “F1” for “E1”, “F5” for “E10”, “crop” for “harmful”, “[…]:” for “E1a:”, “ZEAMX” for “ABUTH”
# BRSNW = assay: Post-emergence effects on crop plants; type: in vivo, Brassica napus; settings: 5 g/ha; Table F5a; crop plant
# Source text: as §4, with “F1” for “E1”, “F5” for “E10”, “crop” for “harmful”, “[…]:” for “E1a:”, “ZEAMX” for “ABUTH”
smiles,measurement,setting,value
N#Cc1ncccc1C1=NOC2(CCN(Cc3cccc(F)c3F)C2=O)C1 (racemic) [Compound I-41],pre-emergence activity at 1280g/ha against ABUTH in %,ABUTH [1],100%
same,pre-emergence activity at 1280g/ha against ECHCG in %,ECHCG [2],100%
same,pre-emergence activity at 320g/ha against MATIN in %,MATIN [3]; 320 g/ha,90%
same,pre-emergence activity at 1280g/ha against MATIN in %,MATIN [3]; 1280 g/ha,100%
same,pre-emergence activity at 1280g/ha and against SETVI in %,SETVI,100%
same,pre-emergence activity at 320g/ha against STEME in %,STEME [4]; 320 g/ha,90%
same,pre-emergence activity at 1280g/ha against STEME in %,STEME [4]; 1280 g/ha,90%
same,pre-emergence activity at 320g/ha and against POAAN in %,POAAN [5]; 320 g/ha,100%
same,pre-emergence activity at 1280g/ha and against POAAN in %,POAAN [5]; 1280 g/ha,100%
same,pre-emergence activity at 320g/ha against AMARE in %,AMARE [6]; 320 g/ha,90%
same,pre-emergence activity at 1280g/ha against AMARE in %,AMARE [6]; 1280 g/ha,90%
same,pre-emergence activity at 1280g/ha against KCHSC in %,KCHSC [7],90%
same,pre-emergence activity at 320g/ha against DIGSA in %,DIGSA; 320 g/ha,90%
same,pre-emergence activity at 1280g/ha against DIGSA in %,DIGSA; 1280 g/ha,100%
same,post-emergence activity at 320g/ha against ABUTH in %,ABUTH [8],100%
same,post-emergence activity at 320g/ha against ECHCG in %,ECHCG [9]; 320 g/ha,90%
same,post-emergence activity at 1280g/ha against ECHCG in %,ECHCG [9]; 1280 g/ha,100%
same,post-emergence activity at 320g/ha against MATIN in %,MATIN [10]; 320 g/ha,100%
same,post-emergence activity at 1280g/ha against MATIN in %,MATIN [10]; 1280 g/ha,100%
same,post-emergence activity at 80g/ha against STEME in %,STEME [11]; 80 g/ha,100%
same,post-emergence activity at 320g/ha against STEME in %,STEME [11]; 320 g/ha,100%
same,post-emergence activity at 1280g/ha against STEME in %,STEME [11]; 1280 g/ha,100%
same,post-emergence activity at 80g/ha against POAAN in %,POAAN [12]; 80 g/ha,90%
same,post-emergence activity at 320g/ha against POAAN in %,POAAN [12]; 320 g/ha,90%
same,post-emergence activity at 1280g/ha against POAAN in %,POAAN [12]; 1280 g/ha,90%
same,post-emergence activity at 80g/ha against AMARE in %,AMARE [13]; 80 g/ha,90%
same,post-emergence activity at 320g/ha against AMARE in %,AMARE [13]; 320 g/ha,90%
same,post-emergence activity at 1280g/ha against AMARE in %,AMARE [13]; 1280 g/ha,100%
same,post-emergence activity at 1280g/ha against KCHSC in %,KCHSC [14],90%
same,post-emergence activity at 320g/ha against VERPE in %,VERPE [15]; 320 g/ha,90%
same,post-emergence activity at 1280g/ha against VERPE in %,VERPE [15]; 1280 g/ha,100%
Cc1ccsc1C1=NOC2(CCN(Cc3sc(Cl)nc3C)C2=O)C1 (racemic) [Compound I-48],pre-emergence activity at 1280g/ha against ABUTH in %,ABUTH [1],100%
COC(=O)CN1CCC2(CC(c3cc(-n4c(=O)cc(C(F)(F)F)n(C)c4=O)c(F)cc3Cl)=NO2)C1=O (racemic) [Compound I-58],post-emergence activity against ABUTH,ABUTH [16],90%
same,post-emergence activity against AMARE,"AMARE [17]; 5 g/ha, Table E2a",80%
same,post-emergence activity against AMARE,"AMARE [17]; 20 g/ha, Table E2b",100%
same,post-emergence activity against PHBPU,"PHBPU; 5 g/ha, Table E5a",90%
same,post-emergence activity against PHBPU,"PHBPU; 20 g/ha, Table E5b",100%
same,post-emergence activity against POLCO,POLCO,100%
same,post-emergence activity against VERPE,VERPE [18],100%
same,post-emergence activity against VIOTR,"VIOTR; 5 g/ha, Table E9a",80%
same,post-emergence activity against VIOTR,"VIOTR; 20 g/ha, Table E9b",100%
same,post-emergence activity against ZEAMX,"ZEAMX; 5 g/ha, Table F1a",10%
same,post-emergence activity against ZEAMX,"ZEAMX; 20 g/ha, Table F1b",20%
same,post-emergence activity against TRZAS,"TRZAS; 5 g/ha, Table F2a",10%
same,post-emergence activity against TRZAS,"TRZAS; 20 g/ha, Table F2b",20%
same,post-emergence activity against BRSNW,BRSNW,0%

# From EP4509511A1, “SUBSTITUTED SPIRO-ISOXAZOLINYL LACTAMS, SALTS THEREOF AND THEIR USE AS HERBICIDALLY ACTIVE SUBSTANCES” (Bayer Aktiengesellschaft, priority 2023, dated 2025)
